This is an account of results in patent publication US6984656B2, “Core modified porphyrins” (priority 2001, dated 2006).

Series [1] can be described thus: Rate of photobleaching in phosphate-buffered saline. Format: physicochemical. To be noted: PBS; 570-750 nm light at 500 mW cm^−2; constant initial absorbance. From the text:
One limitation of PDT dosimetry is the rate of photobleaching of the photosensitizer, which can be problematic with Photofrin® and even more problematic with the bacteriochlorins and the chlorins (such as HPPH).

Series [2] is described as follows: Tissue distribution by fluorescence in tumor-bearing BALB/c mice. Particulars: mouse, in vivo. How it is done:
At various times after sensitizer administration, animals were sacrificed and sensitizer levels determined by direct extraction. In tumor-bearing animals (BALB/c mice or female Fischer rats), the concentration of sensitizer was determined by fluorescence spectroscopy where possible. At various time points post-injection of 5 μmol/kg of sensitizer or 90% of the LD10 (whichever is smaller), tissues were removed, weighed, homogenized, and frozen in liquid nitrogen (3-5 animals per time point). The homogenate, after thawing, was taken up in Solvable and the emission from sensitizer was quantified in terms of ng of sensitizer/mg of protein. With non-fluorescent sensitizers, sensitizer content was quantified spectrophotometrically. Distribution ratios were expressed as the uptake or retention of sensitizer in tumor relative to various normal tissues. Intensified digital fluorescence microscopy and/or confocal microscopy on frozen sections of the tumors, which were prepared from samples specified for this purpose, enabled us to assess intratumor sensitizer distributions.

Another series deals with Colo-26 tumors. Briefly: PDT against implanted Colo-26 tumors in BALB/c mice. To be noted: 6 at 3.25 mg (3.0 μmol)/kg and 694-nm light. The series is classed as in vivo. How it is done: Core-modified porphyrin 6 gave a PDT response in vivo with 694-nm light in BALB/c mice bearing Colo-26 tumors. Animals treated with photosensitizer 6 at 3.25 mg (3.0 μmol)/kg and light required 10.3±0.8 d to reach 400-mm^3 tumor volume, which was more than double the time for control animals (4.3±1.0 d) receiving neither drug nor light (P <0.01).
The animals were irradiated 4 h post-injection with 135 J cm^−2 of 694-nm red light from a dye laser (75 mW cm^−2 for 30 min). […] For comparison purposes, BALB/C mice bearing Colo-26 tumors were given 2.5 mg (4.0 μmol)/kg of Photofrin® as a 5% aqueous dextrose solution and were irradiated 24 h later with 135 J cm^−2 of 630-nm laser light at a power of 75 mW cm^−2 for PDT with Photofrin®.
Animals initially were given i.v. (tail vein) injections of sensitizer at various concentrations (0.05to 5.0 μmol/kg). Mice were restrained at various times thereafter without anesthesia in specially designed holders. Fischer 344 female rats were chemically restrained at various times thereafter. In both models, tumors or normal back skin were exposed to light from a xenon arc lamp with appropriate filters or to a dye laser tuned to the absorption maximum determined by in vivo reflectance measurements. Power density of delivered light typically fell in the range of 10-200 mW cm^−2 evenly distributed to a spot size of roughly 1.5 cm and measured by a radiometer. Several dose rates were explored to examine role/limitation of available oxygen on the photodynamic process. Intratumor temperatures were measured with an Omega HYP-O microthermocouple and, when necessary, a stream of nitrogen gas was used to keep intratumor temperatures below 37° C. Animals were examined and measured daily for the first 14 days post treatment and every other day thereafter until the tumors reached 400 mm^3 in mice or until the tumors double in size for Fischer 344 female rats or for 90 days. Tumor size were measured in two dimensions with a caliper. Time to 400 mm^3 or volume doubling times of tumors from control and PDT-treated groups (8-12 animals per group) were compared statistically using the SAS statistical program (SAS, Inc., Cary, N.C.). A P-value of <0.05 is considered significant. The degree of damage to the normal skin within the irradiation field also were noted. Disappearance of tumor with minimal damage to normal skin is the most desirable response. Animals are considered cured if no tumor regrowth occurs by 90 days. In all studies, three control groups were utilized in addition to the treatment group receiving both sensitizer and light: 1) a complete control receiving neither drug nor light, 2) a group receiving sensitizer only, and 3) a group receiving light only. Representative animals from each of the treatment groups were processed for histology immediately, one day, or two weeks after irradiation. Step sections through the tumor were used to define the boundaries of tumor cell damage and death as a function of distance from the skin surface.

The subject of a further series is Colo-26 cells. Description: Dark and light-induced toxicity toward Colo-26 cells in culture. Format: cell-based, murine.
A short description of series [3]: Clearance from the serum by fluorescence. The series is classed as in vivo, mice. Particulars: fluorescence measurements, post-injection.
Procedure: BALB/c mice were treated with 5 mg/kg of photosensitizer 6 and the ear-swelling response (ESR) was determined at selected time-points.
The conditions of series [4]: 5 mg (5 μmole)/kg of 6; BALB/c mice bearing Colo-26 tumors; cited from earlier work.
In a further series the test system is BALB/c mice. To be noted: mouse, in vivo, 10 mg/kg.

Procedure for Colo-26 cells: In order to compare relative phototoxicity, the core-modified porphyrins of Table 1 were evaluated in culture for dark and light-induced toxicities toward Colo-26 cells, a murine colon carcinoma cell line.

With “5,10,15,20-tetrakis(4-sulfonatophenyl)-21,23-dithiaporphyrin [Compound 6]”, the “rate of photobleaching (kbleach)” value in series [1] is on record as 0.84 ± 0.02 × 10^4 s^−1. The “tumor selectivity of uptake by fluorescence” value in series [2] is “preferentially taken up by tumor”. The “time to reach 400-mm^3 tumor volume” value with Colo-26 tumors was determined as 10.3 ± 0.8 days. Further, the EC50 in the series with Colo-26 cells (24 h incubation in dark, 4 J cm^−2 of 590-800 nm light, survival 24 h later, read-out: effective concentration to give 50% cell-kill of Colo-26 cells in vitro (EC50)) was 30 µM. Moreover, in the series with Colo-26 cells (dark, concentrations ≦100 μg/mL (≦100 μM)), the “dark toxicity toward Colo-26 cells” value is “negligible dark toxicity”. Moreover, in series [3], the “time to clearance from the serum” value was 7 days. The “concentration in tumor 24 h post-injection” value in series [4] is on record as 0.019±0.007 μg/g of protein. Further, in the series with BALB/c mice, the toxicity and morbidity entry is listed as “no toxicity, morbidity, or side effects were observed”.
